Earlier results in PMC3303928 (Bioorganic & medicinal chemistry, 2012).

Details: animal tests, racemic mixtures (and their corresponding 3R,4R stereoisomers)

Row | SMILES | blood-brain barrier (BBB) penetration
1 | Cc1cc(N)nc(C[C@H]2CNC[C@H]2NCCNCCc2cccc(F)c2)c1 [Compound 1] | minimal
2 | Cc1cc(N)nc(C[C@H]2CNC[C@H]2OCCNCCc2cccc(F)c2)c1 [Compound 3] | minimal
